Assay results reported in US10508120B2, “TYK2 inhibitors and uses thereof” (Nimbus Lakshmi, Inc., priority 2017, dated 2019).
pIC50: −log10 of the molar value. Read-outs that look alike come from different tables or passages of the source. Each block holds one compound with its values, some of them ahead of it.

Legend:
JAK2 kinase domain (JH1) = JAK2 kinase domain (JH1) (Homo sapiens (Human), UniProt O60674); assay: JAK2 Radioactive Kinase Assay; assay type: biochemical; details: for inhibition at 10 µM: read-out: JAK2 JH1% Inhibition @ 10 μM
Sequence of JAK2 kinase domain (JH1) (O60674 849-1124): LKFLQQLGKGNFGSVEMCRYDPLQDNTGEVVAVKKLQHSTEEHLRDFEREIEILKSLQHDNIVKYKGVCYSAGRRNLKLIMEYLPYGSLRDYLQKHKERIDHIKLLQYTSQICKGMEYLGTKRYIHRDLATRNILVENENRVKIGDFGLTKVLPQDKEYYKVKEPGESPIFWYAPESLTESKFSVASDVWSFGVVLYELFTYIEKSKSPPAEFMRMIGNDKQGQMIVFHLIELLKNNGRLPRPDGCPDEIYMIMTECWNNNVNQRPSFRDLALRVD
Procedure, shortened: (§1)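 Compounds were tested at a single concentration of 10 μM in a radiometric kinase format against each isolated kinase domain. Activity is reported as percent inhibition at that concentration.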

[1] = molecular target: JAK2/JAK2 homdimeric complex (Homo sapiens (Human), UniProt O60674); assay: GM-CSF Induced pSTAT5 in Human PBMC; assay type: cell-based; details: GM-CSF 5 ng/mL for 20 minutes, pSTAT5 by MSD, read-out: PBMC_GMCSF_pSTAT5 IC50
Sequence of JAK2/JAK2 homdimeric complex (O60674 whole entry, the tested form may be a part): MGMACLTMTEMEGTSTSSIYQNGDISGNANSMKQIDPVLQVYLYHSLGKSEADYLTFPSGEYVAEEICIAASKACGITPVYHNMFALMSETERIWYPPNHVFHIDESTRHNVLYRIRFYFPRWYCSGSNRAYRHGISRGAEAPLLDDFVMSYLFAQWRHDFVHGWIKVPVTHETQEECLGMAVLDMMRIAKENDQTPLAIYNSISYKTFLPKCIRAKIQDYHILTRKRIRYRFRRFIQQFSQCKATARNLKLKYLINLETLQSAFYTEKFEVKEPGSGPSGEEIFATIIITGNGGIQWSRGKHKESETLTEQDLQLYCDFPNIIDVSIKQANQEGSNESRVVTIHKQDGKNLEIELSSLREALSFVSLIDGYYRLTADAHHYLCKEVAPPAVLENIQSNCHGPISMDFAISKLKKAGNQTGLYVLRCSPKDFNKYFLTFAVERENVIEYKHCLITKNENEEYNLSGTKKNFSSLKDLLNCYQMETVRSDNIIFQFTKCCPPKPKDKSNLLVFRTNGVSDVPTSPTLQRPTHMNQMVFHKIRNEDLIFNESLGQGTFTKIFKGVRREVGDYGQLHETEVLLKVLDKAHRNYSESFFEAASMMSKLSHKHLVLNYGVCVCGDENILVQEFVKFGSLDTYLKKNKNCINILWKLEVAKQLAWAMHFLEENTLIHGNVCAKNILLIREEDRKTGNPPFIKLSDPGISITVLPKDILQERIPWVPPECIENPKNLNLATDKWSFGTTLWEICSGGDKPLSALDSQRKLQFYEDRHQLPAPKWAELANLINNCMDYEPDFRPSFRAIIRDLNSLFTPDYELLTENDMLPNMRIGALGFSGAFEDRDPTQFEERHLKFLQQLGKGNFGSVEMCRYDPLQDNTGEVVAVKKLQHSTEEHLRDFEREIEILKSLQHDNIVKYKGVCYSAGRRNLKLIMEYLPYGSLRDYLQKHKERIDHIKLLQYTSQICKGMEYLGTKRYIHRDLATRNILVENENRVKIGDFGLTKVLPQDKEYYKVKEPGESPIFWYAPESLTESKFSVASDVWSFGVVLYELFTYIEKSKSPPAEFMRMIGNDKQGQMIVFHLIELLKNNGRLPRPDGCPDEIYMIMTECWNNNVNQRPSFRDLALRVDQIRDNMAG
Sequence of JAK2/JAK2 homdimeric complex (P32927 17-897 partner): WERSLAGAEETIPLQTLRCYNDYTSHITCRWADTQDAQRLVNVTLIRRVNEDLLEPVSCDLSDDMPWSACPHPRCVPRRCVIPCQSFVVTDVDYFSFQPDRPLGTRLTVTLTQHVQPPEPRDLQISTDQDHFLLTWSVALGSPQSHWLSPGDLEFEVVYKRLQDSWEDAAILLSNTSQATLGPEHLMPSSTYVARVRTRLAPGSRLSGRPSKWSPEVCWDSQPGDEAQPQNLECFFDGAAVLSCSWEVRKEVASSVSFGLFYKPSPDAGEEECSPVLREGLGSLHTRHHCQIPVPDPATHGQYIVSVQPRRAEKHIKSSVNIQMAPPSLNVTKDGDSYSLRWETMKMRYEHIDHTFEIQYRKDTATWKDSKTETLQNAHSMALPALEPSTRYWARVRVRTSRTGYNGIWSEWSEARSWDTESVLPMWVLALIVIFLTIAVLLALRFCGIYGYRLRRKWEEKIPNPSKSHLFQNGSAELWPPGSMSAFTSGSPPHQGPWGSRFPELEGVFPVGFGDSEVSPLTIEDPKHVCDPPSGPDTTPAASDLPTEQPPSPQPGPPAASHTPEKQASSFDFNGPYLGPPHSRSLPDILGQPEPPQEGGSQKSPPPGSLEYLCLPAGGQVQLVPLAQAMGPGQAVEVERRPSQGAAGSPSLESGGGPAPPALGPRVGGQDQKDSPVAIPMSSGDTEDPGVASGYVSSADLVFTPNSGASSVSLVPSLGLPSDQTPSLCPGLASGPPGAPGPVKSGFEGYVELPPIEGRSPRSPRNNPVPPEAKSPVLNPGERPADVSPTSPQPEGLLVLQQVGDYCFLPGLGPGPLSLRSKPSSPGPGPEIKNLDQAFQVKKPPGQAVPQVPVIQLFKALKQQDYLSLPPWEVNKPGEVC

Tyk2 kinase domain (DH1) = Tyk2 kinase domain (DH1) (Homo sapiens (Human), UniProt P29597); assay: Tyk2 Radioactive Kinase Assay; assay type: biochemical; details: for Tyk2 JH1% Inhibition @ 10 μM: 10 μM compound, 10 μM ATP
Sequence of Tyk2 kinase domain (DH1) (P29597 897-1176): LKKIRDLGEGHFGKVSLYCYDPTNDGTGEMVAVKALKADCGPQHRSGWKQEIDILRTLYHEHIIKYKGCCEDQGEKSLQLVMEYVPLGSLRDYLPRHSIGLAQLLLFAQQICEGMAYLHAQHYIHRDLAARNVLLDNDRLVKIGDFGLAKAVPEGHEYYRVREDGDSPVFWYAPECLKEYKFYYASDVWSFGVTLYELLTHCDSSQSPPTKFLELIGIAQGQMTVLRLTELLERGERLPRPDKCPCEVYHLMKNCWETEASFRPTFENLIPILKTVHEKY
Procedure, shortened: as §1

pIC50 [1]: < 4.30
SMILES: CNc1cc(Nc2cccnc2OC)nc2c(C(=O)NC3CC3)cnn12 [I-8]

pIC50 [1]: < 5.60
SMILES: CNc1cc(Nc2cccn(-c3ccc(F)cc3)c2=O)nc2c(C(=O)NC3CC3)cnn12 [I-107, N-cyclopropyl-5-((1-(4-fluorophenyl)-2-oo-1,2-dihydropyridin-3-yl)amino)-7-(methylamino)pyrazolo[1,5-a]pyrimidine-3-carboxamide]

pIC50 [1]: < 4.90
SMILES: [2H]C([2H])([2H])Oc1ncccc1Nc1cc(NC)n2ncc(C(=O)NC3CC3)c2n1 [I-175, N-cyclopropyl-5-((2-(methoxy-d3)pyridin-3-yl)amino)-7-(methylamino) pyrazolo[1,5-a]pyrimidine-3-carboxamide]

inhibition at 10 µM (JAK2 kinase domain (JH1); 10 μM compound, 10 μM ATP): < 50% | pIC50 [1]: < 4.90
SMILES: CNc1cc(Nc2cccn([C@H]3CCCOC3)c2=O)nc2c(C(=O)N[C@@H]3CC[C@H]3OC)cnn12 [I-815]

pIC50 [1]: < 5.60
SMILES: CNc1cc(Nc2cccn(-c3ccc(F)cn3)c2=O)nc2c(C(=O)N[C@@H]3CC[C@H]3OC)cnn12 [I-817]

inhibition at 10 µM (JAK2 kinase domain (JH1); 10 μM compound, 10 μM ATP): < 50% | pIC50 [1]: < 4.30
SMILES: CNc1cc(Nc2cccn([C@H]3CCCOC3)c2=O)nc2c(C(=O)N[C@H]3CC[C@@H]3OC)cnn12 [I-877]

pIC50 [1]: < 4.90
SMILES: CNc1cc(Nc2cccn(-c3nc(C)co3)c2=O)nc2c(C(=O)N[C@H]3CC[C@@H]3OC)cnn12 [I-890]

pIC50 [1]: < 4.30
SMILES: CNc1cc(Nc2cccn([C@@H]3CCCOC3)c2=O)nc2c(C(=O)N[C@@H]3CC[C@H]3OC)cnn12 [I-902, N-((1R,2R)-2-methoxycyclobutyl)-7-(methylamino)-5-((2-oxo-1-((R)-tetrahydro-2H-pyran-3-yl)-1,2-dihydropyridin-3-yl)amino)pyrazolo[1,5-a]pyrimidine-3-carboxamide]
JAK2 JH1% Inhibition @ 10 μM (JAK2 kinase domain (JH1); 10 μM compound, 10 μM ATP): A (percent inhibition at 10 μM lower than 50)

pIC50 [1]: < 4.30
SMILES: CNc1cc(Nc2cccn(C(C)C)c2=O)nc2c(C(=O)N[C@@H]3CC[C@H]3OC)cnn12 [I-917]

pIC50 [1]: < 4.30
SMILES: CNc1cc(Nc2cccn([C@@H]3CCC[C@@H](OC)C3)c2=O)nc2c(C(=O)NC3CC3)cnn12 [I-957]
JAK2 JH1% Inhibition @ 10 μM (JAK2 kinase domain (JH1); 10 μM compound, 10 μM ATP): A (percent inhibition at 10 μM lower than 50) | Tyk2 JH1% Inhibition @ 10 μM (Tyk2 kinase domain (DH1)): A (percent inhibition at 10 μM lower than 50)

Continued, compound first:

SMILES: CNc1cc(Nc2cccn([C@@H]3CCCOC3)c2=O)nc2c(C(=O)NC3CCC3OC)cnn12 (mixture of isomers) [I-814, N-(-2-methoxycyclobutyl)-7-(methylamino)-5-((2-oxo-1-((R)-tetrahydro-2H-pyran-3-yl)-1,2-dihydropyridin-3-yl)amino)pyrazolo[1,5-a]pyrimidine-3-carboxamide]
inhibition at 10 µM (JAK2 kinase domain (JH1); 10 μM compound, 10 μM ATP): < 50% | pIC50 [1]: < 4.30

SMILES: CNc1cc(Nc2cccn(-c3ccccn3)c2=O)nc2c(C(=O)N[C@@H]3CC[C@H]3OC)cnn12 (stereo in doubt) [I-816, N-(2-methoxycyclobutyl)-7-(methylamino)-5-((2-oxo-2H-[1,2′-bipyridin]-3-yl)amino)pyrazolo[1,5-a]pyrimidine-3-carboxamide]
inhibition at 10 µM (JAK2 kinase domain (JH1)): < 50% | inhibition at 10 µM (Tyk2 kinase domain (DH1); read-out: Tyk2 JH1% Inhibition @ 10 μM): < 50% | pIC50 [1]: < 5.60

SMILES: CNc1cc(Nc2cc(C)cc(C)c2)nc2c(C(=O)NC3CC3)cnn12 [I-1, N-cyclopropyl-5-((3,5-dimethylphenyl)amino)-7-(methylamino)pyrazolo[1,5-a]pyrimidine-3-carboxamide]
pIC50 [1]: < 4.30

SMILES: CNc1cc(Nc2cccn(-c3ncccc3F)c2=O)nc2c(C(=O)NC3CC3)cnn12 [I-143]
pIC50 [1]: < 4.30

SMILES: CNc1cc(Nc2cccnc2OC)nc2c(C(=O)NOC(C)(C)C)cnn12 [I-612, N-(tert-butoxy)-5-((2-methoxypyridin-3-yl)amino)-7-(methylamino) pyrazolo[1,5-a]pyrimidine-3-carboxamide]
inhibition at 10 µM (JAK2 kinase domain (JH1)): < 50% | pIC50 [1]: < 4.30

SMILES: CCONC(=O)c1cnn2c(NC)cc(Nc3cccn(-c4ncccc4F)c3=O)nc12 [I-798, N-ethoxy-5-((3′-fluoro-2-oxo-2H-[1,2′-bipyridin]-3-yl)amino)-7-(methylamino) pyrazolo[1,5-a]pyrimidine-3-carboxamide]
inhibition at 10 µM (JAK2 kinase domain (JH1)): < 50% | pIC50 [1]: < 4.30

SMILES: CNc1cc(Nc2cccn(-c3cccnc3)c2=O)nc2c(C(=O)N[C@H]3CC[C@@H]3OC)cnn12 [I-864]
pIC50 [1]: < 4.30

SMILES: CNc1cc(Nc2cccn(-c3cnc(C)o3)c2=O)nc2c(C(=O)N[C@@H]3CC[C@H]3OC)cnn12 [I-895]
pIC50 [1]: < 4.30

SMILES: CNc1cc(Nc2cccn(-c3ccccn3)c2=O)nc2c(C(=O)N[C@@H]3CC[C@H]3OC)cnn12 [I-908, N-((1R,2R)-2-methoxycyclobutyl)-7-(methylamino)-5-((2-oxo-2H-[1,2′-bipyridin]-3-yl)amino)pyrazolo[1,5-a]pyrimidine-3-carboxamide]
JAK2 JH1% Inhibition @ 10 μM (JAK2 kinase domain (JH1); 10 μM compound, 10 μM ATP): A (percent inhibition at 10 μM lower than 50) | Tyk2 JH1% Inhibition @ 10 μM (Tyk2 kinase domain (DH1)): A (percent inhibition at 10 μM lower than 50) | pIC50 [1]: < 4.30

SMILES: CNc1cc(Nc2cccn(-c3ccc(F)cn3)c2=O)nc2c(C(=O)N[C@H]3CC[C@@H]3OC)cnn12 [I-926]
pIC50 [1]: < 5.60
